Experimental data as given in patent US20220152188A1, “TLR4-TLR7 LIGAND FORMULATIONS AS VACCINE ADJUVANTS” (The Regents of the University of California, priority 2019, published 2022).

Key:
Assay type in all cases: cell-based
Details in all cases: Compound 1 = 100
[1] = test system: IL-8; assay: IL-8, human (Tables 1-3)
[2] = target: TLR4 (Homo sapiens, UniProt O00206+Q9Y6Y9); assay: TLR4, human (Tables 1-3)
[3] = test system: IL-6; assay: IL-6, mouse (Tables 1-3)
[4] = test system: IP-10; assay: IP-10, mouse (Tables 1-3)
[5] = target: T1, TLR4 (Mus musculus, UniProt Q9JHF9+Q9QUK6); assay: TLR4, mouse (Tables 1-3)
T1 sequence (Q9QUK6 26-835): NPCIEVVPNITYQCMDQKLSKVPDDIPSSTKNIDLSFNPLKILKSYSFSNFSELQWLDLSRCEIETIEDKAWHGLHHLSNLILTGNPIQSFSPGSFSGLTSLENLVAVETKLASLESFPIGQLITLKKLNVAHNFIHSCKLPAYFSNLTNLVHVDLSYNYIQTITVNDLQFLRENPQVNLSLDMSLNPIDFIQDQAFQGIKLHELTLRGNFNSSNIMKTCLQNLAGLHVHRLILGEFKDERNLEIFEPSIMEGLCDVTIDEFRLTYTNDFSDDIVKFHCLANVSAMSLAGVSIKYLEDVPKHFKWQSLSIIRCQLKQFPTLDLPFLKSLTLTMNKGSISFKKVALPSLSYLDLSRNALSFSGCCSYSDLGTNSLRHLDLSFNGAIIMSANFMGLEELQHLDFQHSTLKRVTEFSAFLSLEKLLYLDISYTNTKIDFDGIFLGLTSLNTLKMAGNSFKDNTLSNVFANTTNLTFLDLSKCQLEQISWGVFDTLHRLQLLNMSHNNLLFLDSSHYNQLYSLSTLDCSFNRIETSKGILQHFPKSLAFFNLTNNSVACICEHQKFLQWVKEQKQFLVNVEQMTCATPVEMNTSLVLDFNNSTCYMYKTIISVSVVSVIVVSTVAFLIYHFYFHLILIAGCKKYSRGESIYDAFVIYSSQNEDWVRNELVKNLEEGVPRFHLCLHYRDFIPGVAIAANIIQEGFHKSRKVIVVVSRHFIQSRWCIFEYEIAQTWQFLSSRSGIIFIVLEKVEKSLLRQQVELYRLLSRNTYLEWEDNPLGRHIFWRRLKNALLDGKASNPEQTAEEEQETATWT
T1 sequence (Q9JHF9 19-160): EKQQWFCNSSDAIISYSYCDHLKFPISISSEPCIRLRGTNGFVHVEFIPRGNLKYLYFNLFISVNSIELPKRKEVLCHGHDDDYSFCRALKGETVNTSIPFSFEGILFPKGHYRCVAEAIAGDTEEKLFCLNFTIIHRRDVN

[6] = Table 1, R^3 series, footnotes not given
Note: test concentration or dose not given here.

Chain of TLR4 (Homo sapiens, UniProt O00206+Q9Y6Y9) (O00206 24-839): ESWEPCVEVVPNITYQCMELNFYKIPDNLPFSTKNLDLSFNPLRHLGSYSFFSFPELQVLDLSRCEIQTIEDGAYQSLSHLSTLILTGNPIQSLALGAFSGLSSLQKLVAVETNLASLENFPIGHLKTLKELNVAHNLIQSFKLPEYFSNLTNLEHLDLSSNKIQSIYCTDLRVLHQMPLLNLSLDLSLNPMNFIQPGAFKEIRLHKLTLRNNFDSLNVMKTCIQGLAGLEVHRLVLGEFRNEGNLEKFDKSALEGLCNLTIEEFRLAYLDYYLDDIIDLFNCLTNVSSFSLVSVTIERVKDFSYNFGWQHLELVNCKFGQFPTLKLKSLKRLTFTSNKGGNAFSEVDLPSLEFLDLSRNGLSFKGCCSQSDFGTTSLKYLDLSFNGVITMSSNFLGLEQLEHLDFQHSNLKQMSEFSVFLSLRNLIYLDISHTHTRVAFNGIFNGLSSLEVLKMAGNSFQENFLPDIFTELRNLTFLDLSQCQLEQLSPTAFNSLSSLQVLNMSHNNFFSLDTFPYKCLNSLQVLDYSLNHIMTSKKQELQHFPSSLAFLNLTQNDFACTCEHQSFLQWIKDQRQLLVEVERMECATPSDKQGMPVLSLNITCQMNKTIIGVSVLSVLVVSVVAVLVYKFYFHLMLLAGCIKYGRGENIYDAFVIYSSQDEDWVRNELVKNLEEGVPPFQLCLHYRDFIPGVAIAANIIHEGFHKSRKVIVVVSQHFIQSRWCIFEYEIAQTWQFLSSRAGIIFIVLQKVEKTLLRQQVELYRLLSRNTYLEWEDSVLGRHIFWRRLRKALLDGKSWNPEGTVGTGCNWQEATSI
Chain of TLR4 (Homo sapiens, UniProt O00206+Q9Y6Y9) (Q9Y6Y9 17-160 limits assumed): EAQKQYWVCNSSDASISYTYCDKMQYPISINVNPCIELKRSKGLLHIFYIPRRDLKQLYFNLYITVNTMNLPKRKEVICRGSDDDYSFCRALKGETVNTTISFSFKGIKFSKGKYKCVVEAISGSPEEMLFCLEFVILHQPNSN

| SMILES | human IL-8 ([1]; Table 2, R^2 series) | human TLR4 ([2]; Table 2, R^2 series) | mouse IL-6 ([3]; Table 2, R^2 series) | mouse IP-10 ([4]; Table 2, R^2 series) | mouse TLR4 ([5]; Table 2, R^2 series) | further results |
| --- | --- | --- | --- | --- | --- | --- |
| O=C(CSc1nc2c([nH]c3ccccc32)c(=O)n1-c1ccccc1)NC1CCCCCCC1 [Compound 10] | 73 | 64 | 114 | 98 | 95 |  |
| O=C(CSc1nc2c([nH]c3ccccc32)c(=O)n1-c1ccccc1)NC1CCCC1 [Compound 11] | 5 | 23 | 53 | 52 | 28 |  |
| O=C(CSc1nc2c([nH]c3ccccc32)c(=O)n1-c1ccccc1)NC1CCC1 [Compound 12] | 19 | 32 | 35 | 66 | 18 |  |
| CCC(C)CCNC(=O)CSc1nc2c([nH]c3ccccc32)c(=O)n1-c1ccccc1 (centres unmarked) [Compound 29] | 23 | 17 | 30 | 45 | 29 |  |
| O=C(CSc1nc2c([nH]c3ccccc32)c(=O)n1-c1ccc(F)cc1)NC1CCCCC1 [Compound 37] |  |  |  |  |  | human IL-8 ([1]; Table 3, R^1 series): 5; human TLR4 ([2]; Table 3, R^1 series): 51; mouse IL-6 ([3]; Table 3, R^1 series): 48; mouse IP-10 ([4]; Table 3, R^1 series): 72; mouse TLR4 ([5]; Table 3, R^1 series): 41 |
| N#CCn1c2ccccc2c2nc(SCC(=O)NC3CCCCC3)n(-c3ccccc3)c(=O)c21 [Compound 51] |  |  |  |  |  | human IL-8 ([1]; Table 1, R^3 series): 30; human TLR4 ([2]; Table 1, R^3 series): 19; mouse IL-6 [3, 6]: 98; mouse IP-10 ([4]; Table 1, R^3 series): 64; mouse TLR4 ([5]; Table 1, R^3 series): 55 |
| CC(C)CCNC(=O)CSc1nc2c([nH]c3ccccc32)c(=O)n1-c1ccccc1 [Compound 27] | 53 | 38 | 61 | 62 | 56 |  |
| Cc1cccc(NC(=O)CSc2nc3c([nH]c4ccccc43)c(=O)n2-c2ccccc2)c1 [Compound 17] | 54 | 116 | 19 | 55 | 13 |  |
| O=C(CSc1nc2c([nH]c3ccccc32)c(=O)n1-c1ccc2ccccc2c1)NC1CCCCC1 [Compound 39] |  |  |  |  |  | human IL-8 ([1]; Table 3, R^1 series): <1; human TLR4 ([2]; Table 3, R^1 series): 3; mouse IL-6 ([3]; Table 3, R^1 series): 3; mouse IP-10 ([4]; Table 3, R^1 series): <1; mouse TLR4 ([5]; Table 3, R^1 series): 6 |
| O=C(CSc1nc2c([nH]c3ccccc32)c(=O)n1CCc1ccccc1)NC1CCCCC1 [Compound 40] |  |  |  |  |  | human IL-8 ([1]; Table 3, R^1 series): 5; human TLR4 ([2]; Table 3, R^1 series): 1; mouse IL-6 ([3]; Table 3, R^1 series): <1; mouse IP-10 ([4]; Table 3, R^1 series): <1; mouse TLR4 ([5]; Table 3, R^1 series): 1 |
| O=C(CSc1nc2c([nH]c3ccccc32)c(=O)n1-c1ccccc1)Nc1ccccc1F [Compound 15] | 61 | 71 | 36 | 54 | 43 |  |
| O=C(CSc1nc2c([nH]c3ccccc32)c(=O)n1-c1ccccc1)NCc1ccco1 [Compound 19] | 15 | 27 | 18 | 26 | 5 |  |
| O=C(CSc1nc2c([nH]c3ccccc32)c(=O)n1-c1ccccc1)Nc1cccc(F)c1 [Compound 16] | 13 | 39 | 14 | 45 | 11 |  |
| CCCCCCCCCCCCn1c2ccccc2c2nc(SCC(=O)NC3CCCCC3)n(-c3ccccc3)c(=O)c21 [Compound 50] |  |  |  |  |  | human IL-8 ([1]; Table 1, R^3 series): <1; human TLR4 ([2]; Table 1, R^3 series): 10; mouse IL-6 [3, 6]: <1; mouse IP-10 ([4]; Table 1, R^3 series): <1; mouse TLR4 ([5]; Table 1, R^3 series): 4 |
| CCCC(C)NC(=O)CSc1nc2c([nH]c3ccccc32)c(=O)n1-c1ccccc1 (centres unmarked) [Compound 30] | 6 | 13 | 12 | 55 | 17 |  |
| O=C(CSc1nc2c([nH]c3ccccc32)c(=O)n1-c1ccccc1)Nc1ccc2ccccc2c1 [Compound 18] | <1 | 21 | <1 | <1 | 2 |  |
| CCCCCCNC(=O)CSc1nc2c([nH]c3ccccc32)c(=O)n1-c1ccccc1 [Compound 25] | 7 | 8 | <1 | <1 | 4 |  |
| O=C(CSc1nc2c([nH]c3ccccc32)c(=O)n1-c1ccccc1)Nc1ccc2cn[nH]c2c1 [Compound 20] | 7 | <1 | 3 | <1 | <1 |  |
| O=C(CSc1nc2c([nH]c3ccccc32)c(=O)n1-c1ccccc1)Nc1nccs1 [Compound 21] | 5 | 12 | 1 | <1 | 2 |  |
| O=C(CSc1nc2c([nH]c3ccccc32)c(=O)n1-c1ccccc1)Nc1ccc(F)cc1 [Compound 14] | 107 | 108 | 103 | 70 | 81 |  |
| O=C(CSc1nc2c([nH]c3ccccc32)c(=O)n1-c1ccccc1)Nc1ccccc1 [Compound 13] | 15 | 31 | 11 | 44 | 21 |  |
| CCNC(=O)CSc1nc2c([nH]c3ccccc32)c(=O)n1-c1ccccc1 [Compound 22] | 4 | 8 | <1 | <1 | <1 |  |
| CCC(CC)NC(=O)CSc1nc2c([nH]c3ccccc32)c(=O)n1-c1ccccc1 [Compound 31] | <1 | 11 | 10 | 26 | 8 |  |
| O=C(CSc1nc2c([nH]c3ccccc32)c(=O)n1-c1ccccc1)NCC1CCCO1 (centres unmarked) [Compound 33] | 8 | 13 | 23 | 54 | 21 |  |
| CC(C)CNC(=O)CSc1nc2c([nH]c3ccccc32)c(=O)n1-c1ccccc1 [Compound 26] | 11 | 21 | 44 | 53 | 24 |  |
| Cc1ccc(-n2c(SCC(=O)NC3CCCCC3)nc3c([nH]c4ccccc43)c2=O)cc1 [Compound 38] |  |  |  |  |  | human IL-8 ([1]; Table 3, R^1 series): 6; human TLR4 ([2]; Table 3, R^1 series): 2; mouse IL-6 ([3]; Table 3, R^1 series): <1; mouse IP-10 ([4]; Table 3, R^1 series): <1; mouse TLR4 ([5]; Table 3, R^1 series): 2 |
| CC(C)(C)CCNC(=O)CSc1nc2c([nH]c3ccccc32)c(=O)n1-c1ccccc1 [Compound 28] | 95 | 72 | 99 | 85 | 126 |  |
| O=C(CSc1nc2c([nH]c3ccccc32)c(=O)n1C1CCCCC1)NC1CCCCC1 [Compound 36] |  |  |  |  |  | human IL-8 ([1]; Table 3, R^1 series): 27; human TLR4 ([2]; Table 3, R^1 series): 40; mouse IL-6 ([3]; Table 3, R^1 series): 71; mouse IP-10 ([4]; Table 3, R^1 series): 61; mouse TLR4 ([5]; Table 3, R^1 series): 56 |
